As a reminder, the MIC is the least concentration at which growth counts as inhibited. Low readings indicate greater potency, high ones weaker potency.

Converted amounts (≈) assume the structure as drawn. Bounds are passed on as bounds.

MIC data for eight compounds are collected here from DBAASP.

Among the test systems are Escherichia coli B; Enterobacter cloacae; Staphylococcus aureus; Salmonella typhimurium; Bacillus megaterium; Klebsiella pneumoniae; Bacillus subtilis 168; Candida krusei ATCC 6258; Escherichia coli ESBL; Escherichia coli BL21; Candida albicans SC5314; Proteus vulgaris.
What all share (experiment): ≥ marks a high value that may be exact or a test limit, other limits are often not marked, values filed in µg/mL are converted to µM
The subject of assay [1] is Escherichia coli ATCC 25922.
The subject of assay [2] is Bacillus subtilis ATCC 6633.
For assay [3], the system named is Staphylococcus aureus ATCC 25923.
Assay [4] deals with Candida albicans ATCC 20032.
In assay [5] the test system is Staphylococcus haemolyticus.
In assay [6] the test system is Salmonella enterica subsp. enterica serovar Enteritidis.
The subject of assay [7] is Candida tropicalis ATCC 750.
For assay [8], the system named is Cryptococcus neoformans ATCC 208821.
Assay [9] deals with Candida parapsilosis ATCC 22019.
Assay [10] has as its system Penicillium expansum EPS 26.
Assay [11] has as its system Aspergillus niger CECT 2694.
In assay [12] the test system is Rhizopus stolonifer CECT 2344.
In assay [13] the test system is Fusarium oxysporum f. sp. lycopersici ATCC 201829.
Assay [14] concerns Pseudomonas aeruginosa KCTC 1637.
Assay [15] concerns Salmonella typhimurium KCTC 1926.
Assay [16] has as its system Trichosporon beigelii KCTC 7707.
Assay [17] has as its system Candida albicans TIMM 1768.
The subject of assay [18] is Staphylococcus epidermidis KCTC 3096.
Assay [19] deals with Bacillus subtilis KCTC 1918.
For assay [20], the system named is Saccharomyces cerevisiae KCTC 7296.
Assay [21] deals with Streptococcus pyogenes KCTC 3096.
In assay [22] the test system is Staphylococcus aureus KCTC 1621.
The test system of assay [23] is Escherichia coli KCTC 1682.
In assay [24] the test system is Bacillus megaterium KCTC 1096.

Take `CC[C@H](C)[C@H](NC(=O)CN)C(=O)NCC(=O)NCC(=O)N[C@H](C(=O)N[C@@H](CC(C)C)C(=O)N[C@@H](CC(C)C)C(=O)NCC(=O)N[C@@H](C)C(=O)NCC(=O)N[C@@H](CCCCN)C(=O)N[C@@H](C)C(=O)N[C@H](C(=O)N[C@@H](CC(C)C)C(=O)N[C@@H](CCCCN)C(=O)NCC(=O)N[C@@H](CC(C)C)C(=O)N[C@@H](C)C(=O)N[C@@H](CCCCN)C(=O)N[C@H](C(=O)N[C@@H](CC(C)C)C(=O)N[C@@H](C)C(=O)N[C@@H](CCC(=O)O)C(=O)N[C@@H](CCCCN)C(=O)N[C@@H](Cc1ccc(O)cc1)C(=O)N[C@@H](C)C(=O)N[C@@H](CC(N)=O)C(N)=O)C(C)C)[C@@H](C)O)C(C)C` [GIGGVLLGAGKATLKGLAKVLAEKYAN]: the minimal inhibitory concentration (MIC) in [1] is greater than 38.3 µM; in assay [2], no less than 38.3 µM; in assay [3], 7.19 µM (≈ 18.8 µg/mL); in assay [4], no less than 38.3 µM.
As for `CC[C@H](C)[C@H](NC(=O)[C@@H](NC(=O)[C@@H]1CCCN1C(=O)[C@@H](NC(=O)[C@@H](NC(=O)[C@H](CCCN=C(N)N)NC(=O)[C@@H]1CCCN1C(=O)[C@@H](NC(=O)[C@@H](NC(=O)[C@H](Cc1cnc[nH]1)NC(=O)[C@H](CCCCN)NC(=O)[C@H](C)NC(=O)[C@@H](NC(=O)[C@H](CO)NC(=O)CNC(=O)[C@H](CC(C)C)NC(=O)[C@@H](NC(=O)[C@H](CO)NC(=O)[C@H](Cc1ccccc1)NC(=O)[C@H](CC(C)C)NC(=O)CN)C(C)C)C(C)C)C(C)C)C(C)C)C(C)C)C(C)C)C(C)C)C(=O)N[C@@H](C)C(=O)N[C@@H](CCC(=O)O)C(=O)N[C@@H](Cc1cnc[nH]1)C(=O)N[C@@H](CC(C)C)C(N)=O` [GLFSVLGSVAKHVVPRVVPVIAEHL], the minimal inhibitory concentration (MIC) with Escherichia coli B is 25 µM (≈ 65.6 µg/mL); in the assay with Enterobacter cloacae, no less than 50 µM; against Staphylococcus aureus, greater than 100 µM; in assay [5], no less than 50 µM; against Salmonella typhimurium it was no less than 100 µM; in [6] it was no less than 100 µM. Besides, the minimum inhibitory concentration (MIC) is no less than 100 µM in the assay on Bacillus megaterium and 25 µM (≈ 65.6 µg/mL) against Klebsiella pneumoniae.
For the compound `CC[C@H](C)[C@H](N)C(=O)N[C@H](C(=O)N[C@@H](CCCCN)C(=O)N[C@@H](CCCCN)C(=O)N[C@H](C(=O)N[C@H](C(=O)N[C@@H](CCCCN)C(=O)N[C@@H](CCCCN)C(=O)N[C@H](C(=O)N[C@H](C(=O)N[C@@H](CCCCN)C(=O)N[C@@H](CCCCN)C(N)=O)[C@@H](C)CC)[C@@H](C)CC)[C@@H](C)CC)[C@@H](C)CC)[C@@H](C)CC` [IIKKIIKKIIKK], the MIC in the assay on Bacillus subtilis 168 is 5 µM (≈ 7.33 µg/mL); in [7], no less than 100 µM; in the assay on Staphylococcus aureus it was 30 µM (≈ 44 µg/mL); in assay [8] it was 25 µM (≈ 36.6 µg/mL); against Candida krusei ATCC 6258, no less than 100 µM; in the assay with Escherichia coli ESBL, 20 µM (≈ 29.3 µg/mL). Further, the minimal inhibitory concentration (MIC) with Escherichia coli BL21 was 30 µM (≈ 44 µg/mL); in assay [9], no less than 1600 µM; with Candida albicans SC5314, no less than 800 µM.
As to `CC[C@H](C)[C@H](N)C(=O)N[C@@H](CC(C)C)C(=O)NCC(=O)N1CCC[C@H]1C(=O)N[C@H](C(=O)N[C@@H](CC(C)C)C(=O)NCC(=O)N[C@@H](CC(C)C)C(=O)N[C@@H](CC(=O)O)C(=O)NCC(=O)N[C@@H](CC(N)=O)C(=O)N[C@@H](C)C(=O)N[C@@H](CC(C)C)C(=O)NCC(=O)NCC(=O)N[C@@H](CC(C)C)C(=O)N[C@H](C(=O)N[C@@H](CCCCN)C(=O)N[C@@H](CCCCN)C(=O)N[C@H](C(N)=O)[C@@H](C)CC)[C@@H](C)CC)C(C)C` [ILGPVLGLDGNALGGLIKKI], the minimum inhibitory concentration (MIC) in assay [1] is greater than 51 µM; in assay [2], no less than 51 µM; in assay [3], greater than 51 µM; in assay [4], no less than 51 µM.
Regarding `CC[C@H](C)[C@H](NC(=O)[C@H](CCCCN)NC(=O)[C@H](CCCCN)NC(=O)[C@H](Cc1ccccc1)NC(=O)[C@H](CC(C)C)NC(=O)[C@H](CCCCN)NC(=O)[C@@H](N)CCCCN)C(=O)N[C@@H](CC(C)C)C(=O)N[C@@H](CCCCN)C(=O)N[C@@H](CCCCN)C(=O)N[C@@H](CC(C)C)C(N)=O` [KKLFKKILKKL], the minimal inhibitory concentration (MIC) in assay [10] was no less than 100 µM; in assay [11] it was 22.4 µM (≈ 31 µg/mL); in [12], no less than 70.7 µM; in assay [13] it was 0.849 µM (≈ 1.18 µg/mL).
As to `CC(C)C[C@H](NC(=O)[C@H](CCCCN)NC(=O)[C@H](CC(C)C)NC(=O)[C@H](CCCCN)NC(=O)[C@H](CC(C)C)NC(=O)[C@@H]1CCCN1C(=O)[C@H](CCCCN)NC(=O)[C@H](CCCCN)NC(=O)[C@H](CC(C)C)NC(=O)[C@H](CC(C)C)NC(=O)[C@@H](N)CCCCN)C(N)=O` [KLLKKPLKLKL], the minimum inhibitory concentration (MIC) in [14] worked out at 6.3 µM (≈ 8.32 µg/mL); in assay [15], 0.8 µM (≈ 1.06 µg/mL); in assay [16], 6.3 µM (≈ 8.32 µg/mL); in [17] it was 25 µM (≈ 33 µg/mL); in [18], 6.3 µM (≈ 8.32 µg/mL); in assay [19] it was 12.5 µM (≈ 16.5 µg/mL). Besides, the MIC in assay [20] is 25 µM (≈ 33 µg/mL).
On to `CC[C@H](C)[C@H](NC(=O)[C@H](CCCCN)NC(=O)[C@H](CCCCN)NC(=O)[C@H](Cc1ccccc1)NC(=O)[C@H](CC(C)C)NC(=O)[C@H](CCCCN)NC(=O)[C@H](Cc1c[nH]c2ccccc12)NC(=O)[C@@H](N)CCCCN)C(=O)NCC(=O)N1CCC[C@H]1C(=O)NCC(=O)N[C@@H](CCCCN)C(=O)N[C@@H](Cc1ccccc1)C(=O)N[C@@H](CC(C)C)C(=O)N[C@@H](Cc1cnc[nH]1)C(=O)N[C@@H](CO)C(=O)N[C@@H](C)C(=O)N[C@@H](CCCCN)C(=O)N[C@@H](CCCCN)C(=O)N[C@@H](Cc1ccccc1)C(N)=O` [KWKLFKKIGPGKFLHSAKKF], for which the minimum inhibitory concentration (MIC) came out at 0.78 µM (≈ 1.86 µg/mL) in [14]; 0.78 µM (≈ 1.86 µg/mL) in [15]; 0.78 µM (≈ 1.86 µg/mL) in assay [21]; 3.12 µM (≈ 7.46 µg/mL) in [22]; 3.12 µM (≈ 7.46 µg/mL) in [23]; 0.78 µM (≈ 1.86 µg/mL) in assay [19].
As for `CC[C@H](C)[C@H](NC(=O)[C@H](CCCCN)NC(=O)[C@H](CCCCN)NC(=O)[C@H](Cc1ccccc1)NC(=O)[C@H](CC(C)C)NC(=O)[C@H](CCCCN)NC(=O)[C@H](Cc1c[nH]c2ccccc12)NC(=O)[C@@H](N)CCCCN)C(=O)N1CCC[C@H]1C(=O)N[C@@H](Cc1ccccc1)C(=O)N[C@@H](CC(C)C)C(=O)N[C@@H](Cc1cnc[nH]1)C(=O)N[C@@H](CC(C)C)C(=O)N[C@@H](C)C(=O)N[C@@H](CCCCN)C(=O)N[C@@H](CCCCN)C(=O)N[C@@H](Cc1ccccc1)C(N)=O` [KWKLFKKIPFLHLAKKF], the MIC in assay [14] amounted to 6.25 µM (≈ 13.6 µg/mL); in [22], 3.12 µM (≈ 6.79 µg/mL); in [23], 6.25 µM (≈ 13.6 µg/mL); in assay [19] it was 0.78 µM (≈ 1.69 µg/mL); against Proteus vulgaris it was 1.56 µM (≈ 3.39 µg/mL); in assay [24] it was 1.56 µM (≈ 3.39 µg/mL).
